Among the test systems are SNB-75 CNS; HOP-62 NSCLC; SK-OV-3 ovarian; SF-539 CNS; LOX IMVI melanoma; SR leukemia; HCT-116 colon; UO-31 renal; NCI/ADR-RES ovarian; HS 578T breast.
What all share (assay): growth of human tumour cells (NCI), 48 h

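Each compound was tested at five concentrations against cells in 96-well plates for 48 hours. Here, GI50 denotes the concentration required for 50% inhibition of growth. Definition used: TGI = concentration required for complete inhibition of growth.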

As for `COc1cc2c(c(OC)c1OC)-c1[nH]ncc1CC2`, the TGI in the assay on SNB-75 CNS, with HOP-62 NSCLC, with SK-OV-3 ovarian, with SF-539 CNS, with LOX IMVI melanoma and in the assay with SR leukemia was more than 100 µM throughout. Moreover, the TGI with HCT-116 colon and in the assay on UO-31 renal was more than 100 µM in each case.
For `COC(=O)C1=Nc2c(C)nn(-c3ccccc3)c2N=C(c2ccc(C)cc2)C1`, the TGI in the assay on SNB-75 CNS, in the assay with HOP-62 NSCLC, with NCI/ADR-RES ovarian, in the assay on SK-OV-3 ovarian, in the assay with SF-539 CNS and in the assay with HS 578T breast was more than 10 µM in each case. In addition, the TGI in the assay on LOX IMVI melanoma, in the assay with SR leukemia and in the assay with HCT-116 colon was more than 10 µM in each case.
For the molecule `CC(=O)OC1CC2CCC1(C)C2(C)C` (stereo not given), the TGI in the assay with SNB-75 CNS, with HOP-62 NSCLC, in the assay on NCI/ADR-RES ovarian, in the assay with SK-OV-3 ovarian, in the assay on SF-539 CNS and in the assay with HS 578T breast was more than 100 µM in each case. Further, the TGI in the assay with LOX IMVI melanoma, with HCT-116 colon and in the assay with UO-31 renal was more than 100 µM in each case.
As for `O=C(OCCOCBr)c1ccccc1`, the TGI with SNB-75 CNS, with HOP-62 NSCLC, in the assay with SK-OV-3 ovarian, with SF-539 CNS, in the assay with LOX IMVI melanoma and in the assay with SR leukemia was more than 100 µM throughout. Further, the TGI in the assay with HCT-116 colon and with UO-31 renal was more than 100 µM in each case.
Consider `O=Cc1ccc(-c2ccc(-c3ccc(C=O)s3)o2)s1`, for which the TGI in the assay on SNB-75 CNS is 78.8 µM; in the assay with HOP-62 NSCLC, more than 100 µM; with NCI/ADR-RES ovarian, more than 100 µM; in the assay on SK-OV-3 ovarian, more than 100 µM; with SF-539 CNS, more than 100 µM; with LOX IMVI melanoma, more than 100 µM. In addition, the TGI in the assay with SR leukemia, in the assay on HCT-116 colon and in the assay with UO-31 renal was more than 100 µM in each case.
Consider `CCCNCc1nc2ccc(Br)cc2c(=O)n1CCC`, for which the TGI in the assay on SNB-75 CNS is 31.7 µM; with HOP-62 NSCLC, 36.9 µM; with SK-OV-3 ovarian it was 32.6 µM; with SF-539 CNS, 29.5 µM; with LOX IMVI melanoma, 17.7 µM; with SR leukemia, more than 100 µM. The TGI with HCT-116 colon was 21.5 µM; in the assay with UO-31 renal, 29.8 µM.
In the case of `COc1ccc2c(c1)CC[C@@H]1[C@@H]2CC[C@@]2(C)[C@H]1CC1(CCCCC1)[C@@H]2O`, the GI50 was 16.4 µM in the assay on SNB-75 CNS; 18.3 µM in the assay on HOP-62 NSCLC; 14.8 µM in the assay on NCI/ADR-RES ovarian; 21.6 µM with SK-OV-3 ovarian; 4.22 µM in the assay on SF-539 CNS; 3.59 µM in the assay on HS 578T breast. Also, the GI50 in the assay with LOX IMVI melanoma was 7.28 µM; in the assay on HCT-116 colon, 12.3 µM; with UO-31 renal, 16.8 µM. Besides, the TGI in the assay on SNB-75 CNS is 35.1 µM; in the assay on HOP-62 NSCLC, 34.3 µM; in the assay on NCI/ADR-RES ovarian, 30.7 µM; in the assay with SK-OV-3 ovarian it was 41.3 µM; in the assay with SF-539 CNS it was 16.6 µM; in the assay with HS 578T breast, 10.9 µM. Also, the TGI in the assay on LOX IMVI melanoma is 20.9 µM; in the assay with HCT-116 colon, 26.4 µM; with UO-31 renal, 47.2 µM.
With `Cc1ccc(C)c(NC(=O)c2cc(-c3ccc([N+](=O)[O-])cc3)nc(N)n2)c1`, the TGI in the assay with SNB-75 CNS, with HOP-62 NSCLC, with SK-OV-3 ovarian, with SF-539 CNS, in the assay on LOX IMVI melanoma and in the assay with SR leukemia was more than 100 µM in each case. Further, the TGI with HCT-116 colon and with UO-31 renal was more than 100 µM throughout.
Regarding `Cc1nn(C(=O)c2ccc(Cl)cc2)c2c1C(c1ccc([N+](=O)[O-])cc1)SC(N)=N2` (stereo not given), the TGI with SNB-75 CNS, in the assay with HOP-62 NSCLC, in the assay on NCI/ADR-RES ovarian, in the assay on SK-OV-3 ovarian, in the assay on SF-539 CNS and in the assay on HS 578T breast was more than 10 µM each time. For the same molecule, the TGI in the assay on LOX IMVI melanoma, in the assay on SR leukemia and with HCT-116 colon was more than 10 µM each time.
Regarding `COC(OC)c1cccc2c1C1(O)CCC3(CC21)OCCCCO3` (stereo not given), the TGI in the assay with SNB-75 CNS, with HOP-62 NSCLC, in the assay with SK-OV-3 ovarian, in the assay on SF-539 CNS, in the assay with LOX IMVI melanoma and in the assay on SR leukemia was more than 100 µM throughout. The TGI in the assay on HCT-116 colon and in the assay with UO-31 renal was more than 100 µM throughout.
As for `O=C(CCC(=O)Nc1ccc(Cl)cc1)CC(=O)c1ccc(F)cc1`, the TGI in the assay on SNB-75 CNS, in the assay with HOP-62 NSCLC, with SK-OV-3 ovarian, in the assay on SF-539 CNS, in the assay with LOX IMVI melanoma and with SR leukemia was more than 100 µM throughout. Moreover, the TGI with HCT-116 colon and in the assay with UO-31 renal was more than 100 µM throughout.
For the molecule `O=c1c2ccc3cccc4c(=O)cc(c5ccccc15)-c2c34`, the TGI in the assay on SNB-75 CNS, with HOP-62 NSCLC, in the assay with SK-OV-3 ovarian, in the assay on LOX IMVI melanoma, with SR leukemia and with HCT-116 colon was more than 100 µM throughout. For the same molecule, the TGI in the assay on UO-31 renal was more than 100 µM.
As to `O=C1Nc2ccccc2C1Cc1ccccc1` (stereo not given), the TGI in the assay on SNB-75 CNS, in the assay on HOP-62 NSCLC, in the assay with SK-OV-3 ovarian, in the assay with SF-539 CNS, in the assay with HS 578T breast and in the assay on LOX IMVI melanoma was more than 100 µM each time. The TGI in the assay on SR leukemia, in the assay on HCT-116 colon and with UO-31 renal was more than 100 µM throughout.
For `N=C(N)SCCc1cn2ccccc2n1`, the TGI in the assay with SNB-75 CNS, in the assay with HOP-62 NSCLC, in the assay with SF-539 CNS, with LOX IMVI melanoma, in the assay with SR leukemia and with HCT-116 colon was more than 100 µM each time. Further, the TGI in the assay on UO-31 renal is more than 100 µM.
